# ChEMBL document CHEMBL3861963, “Hypocriols A-F, Heterodimeric Botryane Ethers from Hypocrea sp., an Insect-Associated Fungus” (J Nat Prod, 2016)
# Legend:
# Assay type in all cases: functional, cell-based
# [1] = Antiproliferative activity against human HCT116 cells measured after 24 hrs by CCK8 assay; conditions: HCT-116, 24 h
# [2] = Antiproliferative activity against human HeLa cells measured after 24 hrs by CCK8 assay
# [3] = Antiproliferative activity against human MCF7 cells measured after 24 hrs by CCK8 assay; conditions: MCF7, 24 h
# [4] = Antiproliferative activity against human A549 cells measured after 24 hrs by CCK8 assay; conditions: A549, 24 h
SMILES,IC50 [1],IC50 [2],IC50 [3],IC50 [4]
CC(=O)O[C@H]1C[C@@H](C)[C@@H]2[C@@H](OCc3c(C)ccc4c3[C@@](C)(CO)CC4(C)C)OC[C@@]3(C)CC(C)(C)[C@H]1[C@]23O,2.7 µM,4.6 µM,23.6 µM,15.3 µM
CO[C@H]1O[C@@H](O[C@H]2[C@H](O)[C@H]3[C@H](C)C[C@H](OC(C)=O)[C@H]4C(C)(C)C[C@@]2(C)[C@@]34O)[C@@]2(C)CC(C)(C)c3ccc(C)c1c32,18.8 µM,3.8 µM,34.2 µM,46.7 µM
CC(=O)O[C@H]1C[C@@H](C)[C@@H]2[C@@H](O)[C@H](O[C@@H]3OC[C@@]4(C)CC(C)(C)c5ccc(C)c3c54)[C@@]3(C)CC(C)(C)[C@H]1[C@]23O,17.5 µM,11.8 µM,48.3 µM,
CC(=O)O[C@H]1C[C@@H](C)[C@@H]2[C@@H](OC[C@@]3(C)CC(C)(C)c4ccc(C)c(CO)c43)OC[C@@]3(C)CC(C)(C)[C@H]1[C@]23O,23 µM,43.6 µM,48.3 µM,
CC(=O)O[C@H]1C[C@@H](C)[C@@H]2[C@@H](O)[C@H](O[C@H]3OC[C@@]4(C)CC(C)(C)c5ccc(C)c3c54)[C@@]3(C)CC(C)(C)[C@H]1[C@]23O,18.6 µM,7.7 µM,19.7 µM,25.3 µM
CC(=O)O[C@H]1C[C@@H](C)[C@@H]2[C@@H](OC3OC[C@@]4(C)CC(C)(C)c5ccc(C)c3c54)[C@H](O)[C@@]3(C)CC(C)(C)[C@H]1[C@]23O (some centres undefined),,3.1 µM,,
